Measured values: US20250324955A1, “ZEBRAFISH MODEL OF HUMAN ACUTE MYELOID LEUKEMIA AND METHOD OF USE THEREOF” (Versitech Limited, priority 2022, published 2025)

Experiments:
[1] = test system: Tg(Runx1:FLT3^ITDIDH2^R172K) and Tg(Runx1:FLT3^ITDIDH2^R140Q) embryos; experiment: Drug treatment of double transgenic embryos, SBB staining as surrogate for embryonic myelopoiesis; format: in vivo, zebrafish; details: drugs at 0.01 μM, 0.1 μM and 1 μM from 6 hpf, stained at 4 dpf
Description: (§1) Drugs at three concentrations (0.01 μM, 0.1 μM and 1 μM) were added to the embryos in E3 medium with (1-phenyl-2-thiourea) PTU at 6 hpf, and the medium was changed every 24 hours. At 4 dpf, embryos were collected and fixed in 4% PFA for SSB staining. […] Adult zebrafish were anesthetized using 0.015% Tricaine. […] Treated zebrafish were then placed into an individual recovery tank with fresh sterile fish water immediately after the gavage procedure. The drug regimen was repeated daily for 14 days.

wildtype zebrafish = experiment: Initial dose-finding study in adult fish, daily oral gavage, survival; format: in vivo; details: daily gavage of quizartinib at 10 mg/kg, enasidenib at 100 mg/kg, 14 days
Description: as §1, with “days. The gavage apparatus was consisted of a 10 μl microliter syringe (Gaoge, Shanghai, China) and a polyethylene tubing (BTPE-50, INTECH, USA), and was adapted from Collymore et al., 2013 and Dang, Michelle, et al., 2016.” for “days.”

[2] = test system: FLT3^ITD and IDH2 double mutant zebrafish; experiment: 14-day oral gavage treatment of adult double transgenic leukemic fish, kidney marrow analysis; format: in vivo; details: daily oral gavage 14 days, quizartinib 10 mg/kg, enasidenib 100 mg/kg
Description: (§2) Zebrafish WKM were harvested from two to twelve months old transgenic or wildtype TU fish. The collected KM was dissociated in 0.9×PBS with 5% fetal bovine serum (FBS) by pipetting and filtered through a 40 μm nylon cell strainer (Corning, NY, USA). The cells were then centrifuged at 500 g for 5 minutes, resuspended, filtered, and washed with 0.9×PBS with 5% (FBS) at least twice. Flow cytometry of the KM was performed using a MoFlo XDP flow cytometer (Beckman coulter). The data was analyzed using FlowJo™ v10.6.1 software. Cytospin preparations were made with 2×10^5 to 3×10^5 cells cytocentrifuged at 400 rpm for 5 minutes onto microscope glass slides (Thermo scientific). The glass slides were dried at room temperature for more than 12 hours, stained with Wright-Giemsa stain, and imaged with Nikon DS-Ri2 digital camera fitted to a Nikon Eclipse Ni-U microscope.
as §1

[3] = test system: Tg(Runx1:FLT3^ITDIDH2^R140Q) zebrafish; experiment: 14-day oral gavage treatment of adult Tg(Runx1:FLT3^ITDIDH2^R140Q) fish; format: in vivo; details: adult Tg(Runx1:FLT3^ITD IDH2^R140Q) double mutant; treatment with Quizartinib and/or Enasidenib, 14 days
Description: as §2, §1

[4] = test system: Tg(Runx1:FLT3^ITDIDH2^R172K) zebrafish; experiment: 14-day oral gavage treatment of adult Tg(Runx1:FLT3^ITDIDH2^R172K) fish; format: in vivo; details: adult Tg(Runx1:FLT3^ITDIDH2^R172K) double mutants; treatment with Quizartinib and/or Enasidenib, 14 days
Description: as §2, §1

Compound	embryonic myelopoiesis (cytochemical staining with SBB) [1]	fish survival (wildtype zebrafish)	blast counts in KM ([2]; alone or combined)	erythroid cells in KM / erythropoiesis ([2]; alone or combined)	neutrophils in KM ([2]; alone or combined)	cellularity in KM ([2]; monotherapy)	spleen size [3]	spleen size [4]
CC(C)(O)CNc1nc(Nc2ccnc(C(F)(F)F)c2)nc(-c2cccc(C(F)(F)F)n2)n1 [enasidenib, Enasidenib]	ameliorated the increase in myelopoiesis	compatible with normal fish survival	reduced blast counts in KM	significant increase in neutrophils and erythroid	significant increase in neutrophils	but not enasidenib monotherapy significantly reduced cellularity	no changes were observed in spleen size	decreased spleen sizes
CC(C)(C)c1cc(NC(=O)Nc2ccc(-c3cn4c(n3)sc3cc(OCCN5CCOCC5)ccc34)cc2)no1 [quizartinib, Quizartinib]		compatible with normal fish survival						
